Some test systems named below: HCC 2998; SK-MEL-28; SF-268; SR; BT-549; SK-MEL-5; IGROV-1; RPMI-8226; MCF7; KM12; CCRF-CEM; SK-MEL-2; SF-295; MDA-N; SK-OV-3; COLO 205; NCI-H522; A498; M14; DLD-1.
Holding throughout (test): inhibition of tumour cell growth, NCI panel, 48 h

The structures appear in SMILES notation.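 Following 48 hours of exposure in 96-well plates, responses at five concentrations were used to interpolate endpoints linearly. GI50 is the concentration that inhibits growth by half.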 The source made the active and inactive calls. No stated cut-off is given here; in the data, active = GI50 up to about 1.1 µM and inactive = higher. A value given as a limit tells only on which side of the number the result lay.

In the case of `Cc1ccc2ccccc2c1CSc1nc(N)nc2c1ncn2CC(C)C`, the GI50 with HCC 2998 was 19.3 µM (inactive); with SK-MEL-28, 55.8 µM (inactive); in the assay with SF-268, 45.8 µM (inactive); in the assay on SR, 4.79 µM (inactive); in the assay on BT-549, 39.4 µM (inactive); in the assay on SK-MEL-5, 7.05 µM (inactive). The GI50 is 51.2 µM (inactive) in the assay with IGROV-1; 5.65 µM (inactive) in the assay with RPMI-8226; 12.9 µM (inactive) in the assay on MCF7; 15.2 µM (inactive) in the assay with KM12; 6.15 µM (inactive) in the assay on CCRF-CEM; 17 µM (inactive) in the assay with SK-MEL-2. Also, the GI50 was 5.86 µM (inactive) in the assay on SF-295; 15.7 µM (inactive) in the assay with MDA-N; 30.5 µM (inactive) with SK-OV-3; 6.4 µM (inactive) in the assay with COLO 205; 8.71 µM (inactive) in the assay on NCI-H522; 26.9 µM (inactive) with A498. The GI50 with M14 was 17.3 µM (inactive).

`CC[C@@]1(O)C(=O)OCc2c1cc1n(c2=O)Cc2cc3c(NC(=O)CN)cccc3nc2-1`: the GI50 in the assay on HCC 2998 was 1.96 µM (inactive); in the assay with SK-MEL-28, 7.05 µM (inactive); with SF-268, < 0.024 µM (active); in the assay on SR, < 0.01 µM (active); in the assay with BT-549 it was 0.171 µM (active); in the assay on SK-MEL-5 it was 0.407 µM (active). For the same compound, the GI50 in the assay with IGROV-1 was 3.42 µM (inactive); in the assay with RPMI-8226, 1.88 µM (inactive); in the assay on MCF7 it was 0.0466 µM (active); in the assay with KM12, 2.96 µM (inactive); in the assay with CCRF-CEM it was < 0.01 µM (active); in the assay on SK-MEL-2, 3.7 µM (inactive). Besides, the GI50 is 0.115 µM (active) with SF-295; 2.1 µM (inactive) in the assay on MDA-N; 0.13 µM (active) in the assay on SK-OV-3; 6.1 µM (inactive) in the assay on COLO 205; 0.277 µM (active) in the assay with NCI-H522; 0.481 µM (active) with A498. The GI50 in the assay on M14 is 0.098 µM (active).

With `C[C@@H]1CC[C@@]2(NC1)O[C@H]1C[C@H]3[C@@H]4CC[C@H]5C[C@@H](O)CC[C@]5(C)[C@H]4CC[C@]3(C)[C@H]1[C@@H]2C`, the GI50 in the assay on HCC 2998 is 37.2 µM (inactive); in the assay on SK-MEL-28 it was > 100 µM (inactive); in the assay on SF-268, > 100 µM (inactive); in the assay on SR, 35.5 µM (inactive); with BT-549, > 100 µM (inactive); in the assay on SK-MEL-5 it was 42.1 µM (inactive). The GI50 is 90.2 µM (inactive) in the assay on IGROV-1; 31.2 µM (inactive) with RPMI-8226; 51.5 µM (inactive) in the assay with MCF7; 27.3 µM (inactive) in the assay on KM12; > 100 µM (inactive) with CCRF-CEM; > 100 µM (inactive) in the assay with SK-MEL-2. Further, the GI50 was 35.5 µM (inactive) with SF-295; 36 µM (inactive) in the assay with MDA-N; 27.4 µM (inactive) in the assay with SK-OV-3; 57.1 µM (inactive) in the assay on COLO 205; > 100 µM (inactive) in the assay with NCI-H522; 68.7 µM (inactive) with A498. Moreover, the GI50 with M14 is 65.2 µM (inactive).

On to `CC(C)(CCCCC(C)(C)NCC1COc2ccccc2O1)NCC1COc2ccccc2O1` (centres undefined), for which the GI50 is 2.42 µM (inactive) with HCC 2998; 2.16 µM (inactive) with SK-MEL-28; 5.45 µM (inactive) in the assay with SF-268; > 10 µM (inactive) in the assay on SR; > 10 µM (inactive) with BT-549; 1.6 µM (inactive) in the assay with SK-MEL-5. For the same compound, the GI50 was > 10 µM (inactive) in the assay with IGROV-1; > 10 µM (inactive) with RPMI-8226; 5.98 µM (inactive) in the assay with MCF7; > 10 µM (inactive) in the assay with KM12; > 10 µM (inactive) in the assay with CCRF-CEM; 3.29 µM (inactive) in the assay on SK-MEL-2. Also, the GI50 in the assay on SF-295 was 9.95 µM (inactive); in the assay on MDA-N, 2.81 µM (inactive); in the assay on SK-OV-3, > 10 µM (inactive); with COLO 205, 2.12 µM (inactive); with NCI-H522 it was 5.51 µM (inactive); with A498, > 10 µM (inactive). In addition, the GI50 with M14 was 1.76 µM (inactive).

`Clc1cccc(C2SCc3nc4ccccc4n32)c1` (centres undefined): the GI50 in the assay on SK-MEL-28 was 19.1 µM (inactive); with SF-268 it was 28.8 µM (inactive); in the assay with SR it was 16.3 µM (inactive); in the assay with IGROV-1, 22.3 µM (inactive); in the assay on RPMI-8226, 14.2 µM (inactive); with KM12, 18.8 µM (inactive). The GI50 in the assay with DLD-1 is 15.8 µM (inactive); in the assay on CCRF-CEM it was 27.4 µM (inactive); in the assay on SF-295 it was 30.3 µM (inactive); in the assay with SK-OV-3, 21.6 µM (inactive); in the assay with COLO 205, 4.79 µM (inactive); in the assay on NCI-H522, 10.4 µM (inactive). Besides, the GI50 in the assay with M14 is 19.7 µM (inactive).

As for `COc1ccc(OC)c(NC(=O)C(=O)C(C(C)=O)c2nc3ccc(Cl)cc3nc2O)c1` (centres undefined), the GI50 with HCC 2998, with SK-MEL-28, in the assay with SF-268, in the assay on SK-MEL-5, in the assay on IGROV-1 and in the assay on RPMI-8226 was > 50 µM (inactive) in each case. Moreover, the GI50 was > 50 µM (inactive) in the assay on KM12; > 50 µM (inactive) with DLD-1; > 5 µM (inactive) in the assay with CCRF-CEM; > 50 µM (inactive) with SK-MEL-2; > 50 µM (inactive) with SF-295; > 50 µM (inactive) in the assay on SK-OV-3. Further, the GI50 with COLO 205, in the assay on A498 and with M14 was > 50 µM (inactive) in each case.

`COc1ccc(/C=C(\C(=C/c2ccc(OC)cc2)[N+](=O)[O-])[N+](=O)[O-])cc1`: the GI50 was 15.5 µM (inactive) in the assay with HCC 2998; 2.31 µM (inactive) in the assay on SK-MEL-28; 4.09 µM (inactive) with SF-268; 2.03 µM (inactive) in the assay on SR; 6.1 µM (inactive) in the assay on BT-549; 4.07 µM (inactive) in the assay with SK-MEL-5. Also, the GI50 in the assay on IGROV-1 was 4.55 µM (inactive); in the assay on RPMI-8226, 3.15 µM (inactive); in the assay with MCF7, 6.31 µM (inactive); with KM12, 14.6 µM (inactive); in the assay on CCRF-CEM, 0.429 µM (active); in the assay on SK-MEL-2, 11.6 µM (inactive). In addition, the GI50 in the assay on SF-295 is 14.3 µM (inactive); with MDA-N, 3.14 µM (inactive); with SK-OV-3, 16.6 µM (inactive); in the assay with COLO 205 it was 3.68 µM (inactive); with NCI-H522, 2.58 µM (inactive); with A498, 30.3 µM (inactive). Moreover, in the assay on M14, the GI50 is 4.11 µM (inactive).

Take `COC(=O)/C=C(C)/C=C/C1OC(C)OCC1O` (centres undefined): the GI50 with HCC 2998, in the assay with SF-268, in the assay on SK-MEL-5, in the assay with IGROV-1, in the assay on RPMI-8226 and in the assay with KM12 was > 100 µM (inactive) in each case. The GI50 in the assay with DLD-1, in the assay on CCRF-CEM, with SF-295, with SK-OV-3, in the assay on COLO 205 and in the assay with NCI-H522 was > 100 µM (inactive) each time. For the same compound, the GI50 in the assay on A498 and with M14 was > 100 µM (inactive) throughout.

Take `CCOC(=O)C1=NN(c2ccc([N+](=O)[O-])cc2)[C@@]2(C)C[C@]3(c4ccccc4)N(c4ccc([N+](=O)[O-])cc4)N=C(C(=O)OCC)N3c3ccccc3N12`: the GI50 in the assay with HCC 2998, in the assay with SK-MEL-28, with SF-268, with SR, in the assay with BT-549 and with SK-MEL-5 was > 100 µM (inactive) in each case. Also, the GI50 with IGROV-1, in the assay on RPMI-8226, in the assay on MCF7, in the assay with KM12, with CCRF-CEM and in the assay with SK-MEL-2 was > 100 µM (inactive) in each case. Besides, the GI50 in the assay with SF-295, in the assay on MDA-N, in the assay with SK-OV-3, in the assay on COLO 205, in the assay on NCI-H522 and with A498 was > 100 µM (inactive) each time. Also, the GI50 in the assay on M14 was 53.2 µM (inactive).

With `CC(C)Sc1nc(C#N)cc2c1CCCC2`, the GI50 with HCC 2998 is 74.8 µM (inactive); in the assay on SK-MEL-28 it was 29.7 µM (inactive); in the assay on SF-268 it was 50.7 µM (inactive); in the assay with SR it was 20.7 µM (inactive); with BT-549, 99.1 µM (inactive); in the assay on SK-MEL-5 it was 15.8 µM (inactive). Moreover, the GI50 with IGROV-1 is 96.2 µM (inactive); in the assay with RPMI-8226 it was 26.4 µM (inactive); with MCF7 it was 39.4 µM (inactive); with KM12, 28.6 µM (inactive); in the assay with CCRF-CEM it was 24.8 µM (inactive); with SK-MEL-2, 23.2 µM (inactive). In addition, the GI50 with SF-295 was 40.9 µM (inactive); in the assay on MDA-N, 37.7 µM (inactive); in the assay on SK-OV-3 it was 72.9 µM (inactive); in the assay with COLO 205 it was 20.1 µM (inactive); in the assay on NCI-H522 it was 21.1 µM (inactive); in the assay with A498 it was 37.1 µM (inactive). The GI50 with M14 is 48.6 µM (inactive).

Take `COC1=CC(=O)c2c(O)c3c(c(O)c2C1=O)CC(C)(O)OC3` (centres undefined) [FUSARUBIN]: the GI50 is 2.99 µM (inactive) in the assay with HCC 2998; 6.11 µM (inactive) in the assay on SK-MEL-28; 3.85 µM (inactive) in the assay with SF-268; 5.36 µM (inactive) in the assay with SR; 6.44 µM (inactive) with BT-549; 1.16 µM (inactive) in the assay on SK-MEL-5. In addition, the GI50 in the assay on IGROV-1 was 1.99 µM (inactive); with RPMI-8226, 6.37 µM (inactive); in the assay on MCF7, 1.34 µM (inactive); in the assay on KM12, 3.1 µM (inactive); in the assay with CCRF-CEM, 1.25 µM (inactive); in the assay on SK-MEL-2, 1.95 µM (inactive). The GI50 is 3.12 µM (inactive) with SF-295; 1.89 µM (inactive) with MDA-N; 18.2 µM (inactive) in the assay on SK-OV-3; 0.897 µM (active) in the assay on COLO 205; 2.25 µM (inactive) with NCI-H522; 9.66 µM (inactive) with A498. In the assay with M14, the GI50 is 1.87 µM (inactive).

The record behind these values is ChEMBL document CHEMBL1201862, “PubChem BioAssay data set” (2004).
